# Assay results as given in patent US9896441B2 (Lycera Corporation, priority 2014, dated 2018).
# “And” between values parts separate entries of the source, which are not always exact repeats. Identical values can stand only once.
# Molecular target: T1, RORγ-LBD (Homo sapiens, UniProt P51449)
# T1 construct: made in house; host or cells: SF9 cells (baculovirus); used as diluted lysate
# T1 sequence (P51449 269-508 limits assumed): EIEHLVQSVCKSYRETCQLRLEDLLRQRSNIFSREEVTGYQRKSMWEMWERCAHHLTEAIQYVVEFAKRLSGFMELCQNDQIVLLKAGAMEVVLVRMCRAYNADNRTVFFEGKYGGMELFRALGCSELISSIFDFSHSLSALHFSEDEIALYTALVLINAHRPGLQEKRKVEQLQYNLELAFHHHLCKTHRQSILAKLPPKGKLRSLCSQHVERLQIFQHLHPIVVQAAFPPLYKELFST
# Test: RORγ-Ligand Binding Domain (LBD) TR-FRET Assay;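 as to TR-FRET Assay Max Response: 665/615 nm signal ratio set to 100 without ursolic acid or test compound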
# Format: biochemical
# Conditions: RORγ-LBD TR-FRET
# Procedure: Assay procedures and results are described below.
# HIS-tagged RORγ-LBD protein was expressed in SF9 cells using a baculovirus expression system. The lysate was diluted in assay buffer (50 mM Tris pH 7.0, 50 mM KCl, 1 mM EDTA, 0.1 mM DTT, 0.01% BSA) to obtain RORγ-LBD final concentration of ˜3 nM in a 384-well assay plate (need to titrate for each batch of protein).
# A stock of biotinylated-LXXLL peptide from coactivator SRC1 (Biotin-[…]) was prepared in assay buffer and added to each well (200 nM final concentration). […] RORγ antagonist ursolic acid was also included at a final concentration of 2 μM. Compounds were diluted in DMSO and further diluted in assay buffer with a final DMSO concentration at 1%.
row,Structure (SMILES),EC50
1,"CCOc1ncc(C(F)(F)F)cc1S(=O)(=O)N1C[C@H](CCC(=O)OC)Oc2ccc(C=C3CCCCC3)cc21 [Example 95A, methyl (S)-3-(6-(cyclohexylidenemethyl)-4-((2-ethoxy-5-(trifluoromethyl)pyridin-3-yl)sulofnyl)-3,4-dihydro-2H-benzo[b][1,4]oxazin-2-yl)propanoate]",500 to 5000 nM
2,"O=C(O)CC[C@H]1CN(S(=O)(=O)c2cccc(OC(F)F)c2)c2cc(/C=C/c3nccnc3Cl)ccc2O1 [Example 89DS, (S,E)-3-(6-(2-(3-chloropyrazin-2-yl)vinyl)-4-((3-(difluoromethoxy)phenyl)sulfonyl)-3,4-dihydro-2H-benzo[b][1,4]-oxazin-2-yl)propanoic acid]",> 10000 nM
3,CCn1cc(S(=O)(=O)N2C[C@H](CNC(C)=O)Oc3ccc(NCc4c(F)cccc4Cl)cc32)c(OCCO)n1 [Example 28E],< 500 nM
4,"COc1cc(S(=O)(=O)N2CCCc3ccc(OCc4c(F)cccc4C4CC4)cc32)ccc1F [Example 25T, 7-((2-cyclopropyl-6-fluorobenzyl)oxy)-1-((4-fluoro-3-methoxyphenyl)sulfonyl)-1,2,3,4-tetrahydroquinoline]",< 500 nM
5,"O=S(=O)(c1cccc(C(F)(F)F)c1)N1CCCc2cc(O[C@@H]3CCc4ccccc43)ccc21 [Example 25U, (R)-6-((2,3-dihydro-1H-inden-1-yl)oxy)-1-((3-(trifluoromethyl)-phenyl)sulfonyl)-1,2,3,4-tetrahydroquinoline]",> 10000 nM
6,"CCOC(=O)C1Cc2ccc(OCc3c(F)cccc3Cl)cc2N(S(=O)(=O)c2cn(CC)nc2Cl)C1 (stereo not shown) [Example 9E, ethyl 1-((3-chloro-1-ethyl-1H-pyrazol-4-yl)sulfonyl)-7-((2-chloro-6-fluorobenzyl)oxy)-1,2,3,4-tetrahydroquinoline-3-carboxylate]",< 500 nM
7,"Cn1ccnc1/C=C/c1ccc2c(c1)N(S(=O)(=O)c1cccc(C(F)(F)F)c1)C[C@H](CCC(=O)O)O2 [Example 89BU, (S,E)-3-(6-(2-(1-methyl-1H-imidazol-2-yl)vinyl)-4-((3-(trifluoromethyl)phenyl)sulfonyl)-3,4-dihydro-2H-benzo[b][1,4]-oxazin-2-yl)propanoic acid]",5000 to 10000 nM
8,"COC(=O)CC[C@H]1CN(S(=O)(=O)c2cccc(C(F)(F)F)c2)c2cc(/C=C/c3cccn4ccnc34)ccc2O1 [Example 89DE, methyl (S,E)-3-(6-(2-(imidazo[1,2-a]pyridin-8-yl)vinyl)-4-((3-(trifluoromethyl)-phenyl)sulfonyl)-3,4-dihydro-2H-benzo[b][1,4]oxazin-2-yl)propanoate]",< 500 nM and 500 to 5000 nM
9,"O=C(O)CC[C@H]1CN(S(=O)(=O)c2cccc(C(F)(F)F)c2)c2cc(/C=C/c3c[nH]nc3C(F)(F)F)ccc2O1 [Example 89BT, (S,E)-3-(6-(2-(3-(trifluoromethyl)-1H-pyrazol-4-yl)vinyl)-4-((3-(trifluoromethyl)phenyl)-sulfonyl)-3,4-dihydro-2H-benzo[b][1,4]oxazin-2-yl)propanoic acid]",> 10000 nM
10,O=S(=O)(c1cccc(C(F)(F)F)c1)N1CCCc2cc(C3CC3)c(OCc3c(F)cccc3C3CC3)cc21 [Example 28C],< 500 nM
11,"O=C(O)CC[C@H]1CN(S(=O)(=O)c2cccc(C(F)(F)F)c2)c2cc(/C=C/c3c(Cl)cc(OC(F)(F)F)cc3Cl)ccc2O1 [Example 89CN, (S,E)-3-(6-(2,6-dichloro-4-(trifluoromethoxy)styryl)-4-((3-(trifluoromethyl)phenyl)sulfonyl)-3,4-dihydro-2H-benzo[b][1,4]-oxazin-2-yl)propanoic acid]",500 to 5000 nM
12,"COC(=O)CC[C@H]1CN(S(=O)(=O)c2cc(C(F)(F)F)cnc2OC(C)C)c2cc(/C=C/c3c(F)cccc3Cl)ccc2O1 [Example 89FL, methyl (S,E)-3-(6-(2-chloro-6-fluorostyryl)-4-((2-isopropoxy-5-(trifluoromethyl)pyridin-3-yl)sulfonyl)-3,4-dihydro-2H-benzo[b][1,4]oxazin-2-yl)propanoate]",500 to 5000 nM
13,"O=S(=O)(c1cccc(C(F)(F)F)c1)N1CCCc2cc(OCc3ccccc3)ccc21 [Example 25K, 6-(benzyloxy)-1-((3-(trifluoromethyl)phenyl)sulfonyl)-1,2,3,4-tetrahydroquinoline]",< 500 nM
14,"O=C(O)CC[C@H]1CN(S(=O)(=O)c2cccc(C(F)(F)F)c2)c2cc(/C=C/c3cccc4cn[nH]c34)ccc2O1 [Example 89BL, (S,E)-3-(6-(2-(1H-indazol-7-yl)vinyl)-4-((3-(trifluoromethyl)phenyl)sulfonyl)-3,4-dihydro-2H-benzo[b][1,4]oxazin-2-yl)propanoic acid]",> 10000 nM
15,"COC(=O)CC[C@H]1CN(S(=O)(=O)c2cccc(C(F)(F)F)c2)c2cc(/C=C/c3c(C)noc3C)ccc2O1 [Example 89BS, (S,E)-methyl 3-(6-(2-(3,5-dimethylisoxazol-4-yl)vinyl)-4-((3-(trifluoromethyl)phenyl)-sulfonyl)-3,4-dihydro-2H-benzo[b][1,4]-oxazin-2-yl)propanoate]",< 500 nM
16,"COc1cc(S(=O)(=O)N2c3cc(OCc4c(F)cccc4Cl)ccc3C[C@@H](C(=O)O)[C@H]2C)ccc1F (racemic) [Example 21, (2R,3R)-7-((2-Chloro-6-fluorobenzyl)oxy)-1-((4-fluoro-3-methoxyphenyl)sulfonyl)-2-methyl-1,2,3,4-tetrahydroquinoline-3-carboxylic acid]",< 500 nM
17,"CC(=O)c1cccc(/C=C/c2ccc3c(c2)N(S(=O)(=O)c2cccc(C(F)(F)F)c2)C[C@H](CCC(=O)O)O3)n1 [Example 89BX, (S,E)-3-(6-(2-(6-acetylpyridin-2-yl)vinyl)-4-((3-(trifluoromethyl)-phenyl)sulfonyl)-3,4-dihydro-2H-benzo[b][1,4]oxazin-2-yl)propanoic acid]",> 10000 nM

# Same assay, conditions: RORγ-LBD TR-FRET assay
row,Structure (SMILES),EC50 [nM]
1,"CC(=O)N[C@@H]1Cc2ccc(/C=C(\C)c3c(F)cccc3Cl)cc2N(S(=O)(=O)c2cccc(C(F)(F)F)c2)[C@@H]1C [Example 148, N-((2R,3R)-7-((E)-2-(2-Chloro-6-fluorophenyl)prop-1-en-1-yl)-2-methyl-1-((3-(trifluoromethyl)phenyl)sulfonyl)-1,2,3,4-tetrahydroquinolin-3-yl)acetamide]",< 500
2,"COC(=O)C(C)(C)C[C@@H]1Cc2ccc(/C=C(\C)c3c(F)cccc3Cl)cc2N(S(=O)(=O)c2ccc(F)c(OC)c2)C1 [Example 154B, methyl (S,E)-3-(7-(2-(2-chloro-6-fluorophenyl)prop-1-en-1-yl)-1-((4-fluoro-3-methoxyphenyl)sulfonyl)-1,2,3,4-tetrahydroquinolin-3-yl)-2,2-dimethylpropanoate]",< 500
3,"COc1cc(S(=O)(=O)C2CC(CC(C)(C)C(=O)O)Oc3ccc(/C=C(\C)c4c(F)cccc4Cl)cc32)ccc1F (stereo not shown) [Example 186K, (E)-3-(6-(2-(2-chloro-6-fluorophenyl)prop-1-en-1-yl)-4-((4-fluoro-3-methoxyphenyl)-sulfonyl)chroman-2-yl)-2,2-dimethylpropanoic acid]",< 500
4,"Cc1noc(C)c1NC(=O)N[C@@H]1Cc2ccc(/C=C/c3c(F)cccc3C(F)(F)F)cc2N(S(=O)(=O)c2cccc(C(F)(F)F)c2)[C@@H]1C [Example 116L, 1-(3,5-dimethylisoxazol-4-yl)-3-((2R,3R)-7-((E)-2-fluoro-6-(trifluoromethyl)styryl)-2-methyl-1-((3-(trifluoro-methyl)phenyl)sulfonyl)-1,2,3,4-tetrahydroquinolin-3-yl)urea]",< 500
5,"CCOC(=O)C(C)(C)CC1CC(S(=O)(=O)c2ccc(F)c(OC)c2)c2cc(OCc3c(F)cccc3Cl)ccc2O1 (stereo not shown) [Example 185, Ethyl 3-(6-((2-chloro-6-fluorobenzyl)oxy)-4-((4-fluoro-3-methoxyphenyl)sulfonyl)chroman-2-yl)-2,2-dimethylpropanoate]",< 500

# Same assay, conditions: RORγ-LBD TR-FRET assay, maximum response
row,Structure (SMILES),TR-FRET Assay Max Response
1,"CC(=O)N[C@@H]1Cc2ccc(/C=C(\C)c3c(F)cccc3Cl)cc2N(S(=O)(=O)c2cccc(C(F)(F)F)c2)[C@@H]1C [Example 148, N-((2R,3R)-7-((E)-2-(2-Chloro-6-fluorophenyl)prop-1-en-1-yl)-2-methyl-1-((3-(trifluoromethyl)phenyl)sulfonyl)-1,2,3,4-tetrahydroquinolin-3-yl)acetamide]",** (a value in the range of greater than 90 to 150)
2,"COC(=O)C(C)(C)C[C@@H]1Cc2ccc(/C=C(\C)c3c(F)cccc3Cl)cc2N(S(=O)(=O)c2ccc(F)c(OC)c2)C1 [Example 154B, methyl (S,E)-3-(7-(2-(2-chloro-6-fluorophenyl)prop-1-en-1-yl)-1-((4-fluoro-3-methoxyphenyl)sulfonyl)-1,2,3,4-tetrahydroquinolin-3-yl)-2,2-dimethylpropanoate]",** (a value in the range of greater than 90 to 150)
3,"COc1cc(S(=O)(=O)C2CC(CC(C)(C)C(=O)O)Oc3ccc(/C=C(\C)c4c(F)cccc4Cl)cc32)ccc1F (stereo not shown) [Example 186K, (E)-3-(6-(2-(2-chloro-6-fluorophenyl)prop-1-en-1-yl)-4-((4-fluoro-3-methoxyphenyl)-sulfonyl)chroman-2-yl)-2,2-dimethylpropanoic acid]",*** (a value in the range of greater than 150 to 200)
4,"Cc1noc(C)c1NC(=O)N[C@@H]1Cc2ccc(/C=C/c3c(F)cccc3C(F)(F)F)cc2N(S(=O)(=O)c2cccc(C(F)(F)F)c2)[C@@H]1C [Example 116L, 1-(3,5-dimethylisoxazol-4-yl)-3-((2R,3R)-7-((E)-2-fluoro-6-(trifluoromethyl)styryl)-2-methyl-1-((3-(trifluoro-methyl)phenyl)sulfonyl)-1,2,3,4-tetrahydroquinolin-3-yl)urea]",*** (a value in the range of greater than 150 to 200)
5,"CCOC(=O)C(C)(C)CC1CC(S(=O)(=O)c2ccc(F)c(OC)c2)c2cc(OCc3c(F)cccc3Cl)ccc2O1 (stereo not shown) [Example 185, Ethyl 3-(6-((2-chloro-6-fluorobenzyl)oxy)-4-((4-fluoro-3-methoxyphenyl)sulfonyl)chroman-2-yl)-2,2-dimethylpropanoate]",** (a value in the range of greater than 90 to 150)

# Same assay, conditions: with 2 μM ursolic acid (RORγ antagonist); highest test concentration 10 μM
row,Structure (SMILES),EC50 [nM]
1,"C/C(=C\c1ccc2c(c1)N(S(=O)(=O)c1cccc(C(F)(F)F)c1)C[C@H](CCCC(=O)O)O2)c1c(F)cccc1Cl [Example 195G, (S,E)-4-(6-(2-(2-chloro-6-fluorophenyl)prop-1-en-1-yl)-4-((3-(trifluoromethyl)phenyl)-sulfonyl)-3,4-dihydro-2H-benzo[b][1,4]oxazin-2-yl)butanoic acid]",< 500
2,O=C(O)C1Cc2ccc(OCc3c(Cl)cccc3Cl)cc2N(S(=O)(=O)c2cccc(C(F)(F)F)c2)C1 (stereo not shown),< 500
3,O=C(O)C[C@H]1CN(S(=O)(=O)c2cccc(C(F)(F)F)c2)c2cc(NCc3c(F)cccc3Cl)ccc2O1,< 500
4,Cc1nn(C(F)F)cc1S(=O)(=O)N1CC(CO)Cc2ccc(OCc3c(F)cccc3Cl)cc21 (stereo not shown) [drawing 1601],< 500
5,COc1cc(S(=O)(=O)N2CC(CO)Cc3ccc(OCc4c(F)cccc4Cl)cc32)ccc1F (stereo not shown),< 500
6,O=C(O)C1Cc2ccc(OCc3c(F)cccc3C(F)(F)F)cc2N(S(=O)(=O)c2cccc(C(F)(F)F)c2)C1 (stereo not shown),< 500
7,CCn1cc(S(=O)(=O)N2C[C@H](CNC(C)=O)Nc3ccc(NCc4c(F)cccc4Cl)cc32)c(Cl)n1,< 500
